Measured values: patent publication US9707244B2, “Compositions and methods for treating conditions that affect epidermis” (Gencia Corporation, priority 2013, dated 2017)
Entries after “also recorded” stand apart in the source; their conditions may differ.

What was measured:
[1] = test system: BJ human fibroblast cells; test: Survival of fibroblasts treated with chemotherapeutic agents (DAPI fluorescence); type: cell-based; conditions: 48 hours, added simultaneously
Method: Fibroblasts were incubated with increasing amounts of Mitocreatine and certain anti-neoplastic agents, such as Cetuximab, Gemcitabine and Temozolomide. After incubation, cells were washed and the number of adherent (i.e. surviving) cells was assessed by DAPI fluorescence, which was measured utilizing a plate reader (PHERA Star FS from BMG Labtech). For these experiments two kinds of cells were used. Either the Human hepatocellular liver carcinoma cell line HepG2, or the BJ human fibroblast cells, which are established from normal human foreskin. […] Mitocreatine and the antineoplastic agent were added simultaneously.

[2] = test system: fibroblasts; test: Oxygen consumption rate (XF24 extracellular flux analyzer) in fibroblasts; type: cell-based; conditions: 5 nM to 500 nM; within thirty minutes of treatment; compared to 10 μM unmodified creatine
Method: In this assay, an XF24 extracellular flux analyzer (Seahorse Bioscience, North Billerica, Mass.) was used to measure mitochondrial oxygen consumption in intact cells. The XF24 analyzer creates a transient 7 μL chamber in specialized microplates that allows determination of oxygen and proton concentrations in real time through the measurement of oxygen sensitive dyes by the XF24 instrument. 24 hours prior to OCR measurement, fibroblasts were seeded into 20 wells of the 24 well tissue culture plate while 1 ml of XF Calibrant solution (Seahorse Bioscience, North Billerica, Mass.) was added to each well of a 24 well dual-analyte sensor cartridge (Seahorse Bioscience, North Billerica, Mass.). The sensor cartridge repositioned on the 24 well calibration plate, and the plate was incubated overnight at 37° C. without additional CO2.
On the day of the experiment, the injection ports on the sensor cartridge were loaded with compound A-1 or creatine as indicated at 10× concentrations and placed into the XF24 Flux Analyzer for automated calibration. […]
The results of the assay for Mitocreatine at 5 nM, 10 nM, 50 nM, and 500 nM concentrations are shown in FIG. 2 as a percent change from the untreated control. For comparison, the results obtained Mitocreatine were compared with the percent increase in oxygen consumption rate measured upon addition of 10 μM creatine.

[3] = test system: AG11073 untransformed human skin fibroblasts from a person; test: Cellular senescence assay (SA-β-Gal fluorometric), aged fibroblasts; type: cell-based; conditions: 5 nM to 200 nM, p<0.01 for 5-100 nM, p<0.05 for 200 nM
Excerpt: Senescent cells show common biochemical markers such as expression of an acidic senescence-associated β-galactosidase (SA-β-Gal) activity. While senescence has been characterized primarily in cultured cells, there is also evidence that it occurs in vivo. Cells expressing markers of senescence such as SA-β-Gal have been identified in normal tissues. To determine whether modified Mitocreatine analogues may influence the scenesence in aged fibroblasts, a 96-well Cellular Senescence Assay (SA-β-Gal Fluorometric Format) Cat # CBA-231 Cell Biolabs, Inc. was employed and buffers referenced were supplied by the manufacturer and in some cases freshly prepared prior to usage according to the manufacturer's instructions.
The cells utilized were Human Skin Fibroblast acquired from Coriell Cell Repository. The cell line AG11073 is untransformed human skin fibroblasts from a person. The primary culture was initiated from explants of a 2 mm-punch biopsy. The cell line AG16409 was untransformed human skin fibroblasts from a person.
Cells were grown in a 96 well plate. […]
50 μL, of the reaction mixture was removed to a 96-well plate suitable for fluorescence measurement. The reaction was stopped by adding 200 μL of Stop solution and fluorescence was measured with a fluorescence plate reader (PHERA Star FS from BMG Labtech) at 360 nm (Excitation)/465 nm (Emission).

[4] = test system: C57BL/6J mice; test: Forced treadmill endurance test; type: in vivo; conditions: 10, 20, 30 mg/kg p.o. once daily for 30 days
Method: Group Setting: C57BL/6J mice were randomly assigned into five groups with different treatment started with balanced full-paw and fore-paw grip strength. Seventy five female mice were dosed at 4 PM for 30 consecutive days (qd). • 1. Vehicle (p.o. via oral gavage once daily for 30 days, n=15) • 2. Creatine (300 mg/kg, p.o. via oral gavage once daily for 30 days, n=15) • 3. Mitocreatine (10 mg/kg, p.o. via oral gavage once daily for 30 days, n=15) • 4. Mitocreatine (20 mg/kg, p.o. via oral gavage once daily for 30 days, n=15) • 5. Mitocreatine (30 mg/kg, p.o. via oral gavage once daily for 30 days, n=15). 75 mice (group 1-5) were tested on the treadmill with a previously optimized protocol as described below. The mice were habituized to the treadmill at two separate occasions, with a habituation protocol. Mice were allowed to acclimate to the testing room for at least 30 min before tested. Mice were initially placed on a treadmill running at 5 m/min for 2 minutes. The treadmill belt was set horizontally. The treadmill speed was then increased to 20 m/min in […] at steps of 5 m/min in every 10 sec with the shocking grid set at 0.2 mA. Mice were allowed to run for 20 minutes. […] The total running time until exhaustion was recorded. […] Data were expressed as Mean±S.E.M. and analyzed with one-way ANOVA followed by Bonferroni test compared to vehicle group, *P<0.05, **P<0.01 (FIG. 32).

## CN(CC(=O)NCCC[P+](c1ccccc1)(c1ccccc1)c1ccccc1)C(=N)N.Cl.[Cl-] [Mitocreatine, N^2-[ammonio(imino)methyl]-N^2-methyl-N-[3-(triphenylphosphonio)propyl] glycinamide dichloride]
[1]; Gemcitabine (80 μM)
  survival of fibroblasts: improved the survival
[1]; Temozolomide (1 mM)
  survival of fibroblasts: improved the survival
[1]; high concentrations of Cetuximab
  survival of fibroblasts: improved the survival
[2]
  oxygen consumption rate: significant increase in oxygen consumption rate
[3]
  β-galactosidase expression/activity (senescence marker): statistically significant decrease; also recorded: retards senescence
[4]
  endurance (total running time): Increases Endurance
